Data set [1] has as its target T1, human vasopressin receptor V2R (Homo sapiens, UniProt P30518).
T1 construct: host or cells: HeLa (lentivirus infection, puromycin selection)
Kind of data set: Inhibition of vasopressin-induced activation of V2R (cAMP HTRF in HeLa-V2R cells). It counts as cell-based. As to conditions: AVP 2.25 nM, read-out: IC50, inhibition of cAMP increase in human cervical cancer cells (Human V2R Hela-Stable cell line OE2). On the procedure: HeLa-V2R cells were incubated with DMEM medium supplemented with 10% fetal bovine serum under the condition of 37° C. and 5% CO2, and the medium was added with 2 μg/mL puromycin to continuously screen cells expressing V2R. On the day of the experiment, the cells were digested with trypsin, washed twice with the stimulation buffer in the cAMP-GS HIRANGE kit, resuspended, and counted to prepare 1.6×10^6 cells/mL, and IBMX was added until a final concentration of 0.5 mM. 5 μL of cell suspension/well was transferred to a 384-well plate. To the corresponding wells were added 2.5 μL of various concentrations of the test compounds (3-fold dilution from 10 μM, 10 concentration gradients) or DMSO (minimum value Min, maximum value Max as a control), respectively. […]. At the same time, cAMP standard samples (3-fold dilution from 5.6 μM, 10 concentration points) were prepared, and 10 μL of cAMP standard samples were transferred to corresponding wells of a 384-well plate. The cAMP-d2 fluorescence and anti-cAMP antibody probes provided in the kit were 20-fold diluted by the lysis buffer in the cAMP-GS HIRANGE kit. To each well of a 384-well plate was sequentially added 5 μL of each diluted reagent. The above mixture in each well was mixed well, centrifuged briefly, incubated at 25° C. for 2 hours, and tested. The sample was tested by the HTRF method with the Envision microplate reader to determine the fluorescence intensity at 615 nm and 665 nm. Each test sample was tested in duplicate, with 32 replicates for both Min and Max, respectively.
The fluorescence intensity ratio FI665/615 at the wavelength of 665 nm and 615 nm of the samples in each well was calculated. The logarithm of the concentration of the standard was taken as X, and FI665/615×1000 as the Y value, and the standard curve was obtained by fitting the “log(inhibitor) vs response-variable slope (four parameters)” model in Prism 8.0 software. FI665/615×1000 of the test well was taken as the Y value, and the cAMP concentration corresponding to each sample was calculated in the Prism 8.0 software according to the above standard curve.
% Inhibition (inhibition percentage) calculation formula is as follows: % inhibition=(Cmax−Ccmpd)/(Cmax−Cmin)×100
wherein Cmax is the average calculated value of cAMP concentration in all maximum wells; Cmin is the average calculated value of cAMP concentration in all minimum wells; Ccmpd is the calculated value of cAMP concentration of the test compound.
% Inhibition (inhibition percentage) was taken as the Y value, and the logarithmic value of the compound concentration was taken as the X value, and the IC50 was calculated by nonlinear regression with “log(inhibitor) vs response-variable slope (four parameters)” model in Prism 8.0 software, wherein Y=Bottom+(Top−Bottom)/(1+10^((Log IC50−X)×Hill Slope)).
In general terms: Time-resolved FRET reads energy transfer from a long-lived donor to a nearby acceptor.

A further data set has as its system LLC-PK1 cells. The experiment in a line: AVP-induced LLC-PK1 cell proliferation assay. It counts as cell-based, Porcine. The arrangement: Proliferation inhibition grading, Repeated experiment I / Proliferation inhibition grading, Repeated experiment II: key to the marks not given beside the values. The note with it: for hook effect in AVP-induced LLC-PK1 cell proliferation: high concentration, up to 3 μM. The method, then: Porcine renal epithelial cell LLC-PK1: purchased from ATCC, Cat #CL-101 The pathogenesis of polycystic kidney disease is related to the low intracellular calcium ion concentration of renal collecting duct epithelial cells and the cAMP-dependent excessive proliferation of cells. […] LLC-PK1 cells were incubated with M199 medium supplemented with 10% fetal bovine serum under the condition of 37° C. and 5% CO2. On the first day of the experiment, a 96-well plate was coated with 0.01% Poly-D-lysine, then each well of the plate was added with 100 μL of the above mixture. After standing at room temperature for 10 minutes, the mixture in each well was aspirated and air-dried at room temperature for 1 hour, and washed once with 200 μL 1×PBS for further use. LLC-PK1 cells were digested with trypsin, resuspended with serum-free M199 after centrifugation, counted, diluted into 1×10^5/mL cell suspension with serum-free M199 medium, and added with FBS until 1% final concentration. To a 96-well plate was transfered 200 μL of cell suspension/well. After the cells were incubated for 24 hours, the supernatant of the formulated solution was aspirated, and the cells were washed once with 200 μL of PBS. Then 160 μL of M199 medium containing 0.05% FBS and 20 μL of 10×Verapamil (final concentration of 5 μM) were sequentially added thereto, and the culture was continued for 24 hours. To the corresponding wells was respectively added 10 μL of various concentrations of the test compound (final concentration starting from 3 μM, 3-fold dilution, 8 concentration gradients) or DMSO (Min, and Max as a control) on the third day. […] On the fifth day, the culture medium was carefully aspirated. The cells were washed once with 200 μL of PBS. 90 μL of M199 serum-free medium was carefully added thereto, and then 10 μL of Alamarblue reagent was added thereto. The mixture was centrifuged at 300 rpm for 1 minute, incubated at 37° C. for 2 hours, and then tested. SpectraMax instrument was used for the sample test. The excitation light was 560 nm, and the emission light was 595 nm. Each test sample was tested in triplicate, with 6 replicates for both Min and Max, respectively. The concentration of the compound was taken as the X value, and the average value of the fluorescence intensity of each experimental well sample minus the fluorescence intensity of the background well was taken as the Y value, which represented the number of living cells in the well at the time of testing. The Grouped-Summary data-Separated bar graph in GraphPad Prism 8.0 software was used to make a bar chart for reflecting the dose-effect relationship of different compounds on AVP-induced cell proliferation. […] Data quality control: […]

In the next data set the target is T2, human V1bR (Homo sapiens, UniProt P47901).
T2 construct: purchased Perkinelmer, USA
T2 sequence (P47901 1-424): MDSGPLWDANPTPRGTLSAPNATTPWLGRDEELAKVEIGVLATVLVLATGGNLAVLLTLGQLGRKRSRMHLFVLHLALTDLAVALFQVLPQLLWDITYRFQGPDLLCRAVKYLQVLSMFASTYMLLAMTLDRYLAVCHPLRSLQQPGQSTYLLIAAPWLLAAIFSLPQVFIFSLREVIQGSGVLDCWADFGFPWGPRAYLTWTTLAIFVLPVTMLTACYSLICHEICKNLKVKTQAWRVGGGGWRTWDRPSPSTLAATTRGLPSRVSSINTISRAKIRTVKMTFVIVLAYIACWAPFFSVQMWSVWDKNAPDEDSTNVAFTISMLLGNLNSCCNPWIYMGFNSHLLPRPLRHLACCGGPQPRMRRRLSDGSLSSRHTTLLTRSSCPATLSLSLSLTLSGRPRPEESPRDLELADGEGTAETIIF
Kind of data set: Competitive isotope ligand binding, V1b receptor. On the procedure: The cells with high expression of human V1a receptor were amplified, collected, washed twice with PBS, resuspended with PBS containing a protease inhibitor, homogenized with a homogenizer at 15000 r/min to break the cells, and centrifuged at 4° C. and 3000 r/min for 15 minutes. The supernatant was collected, centrifuged at 20,000 r/min at 4° C. for 45 minutes. Then the supernatant was discarded to obtain a cell membrane precipitation. Buffer was added to resuspend to measure the protein concentration, aliquoted, and stored at −80° C. The cell membranes of highly expressed human V1b and V2 receptors were purchased from Perkinelmer, USA.
The stock solution of the test compound and that of the positive control were diluted to 1 mM (10-fold dilution) and 0.1 mM (100-fold dilution) with DMSO, respectively, and then sequentially subjected to a four-fold dilution with DMSO to the tenth point.
Cell membranes overexpressing human receptors were prepared with assay buffer to 5 mg/mL.
• 1. 1 μL of the compound was aspirated from the dilution plate into each well of the 96-well assay plate (the concentration of the test compound in the reaction would be diluted 100-fold). To the control well was added 1 μL of DMSO. • 2. 10 mL of membrane solution containing 5 μg/μL was prepared. • 3. To the compound assay plate was added the membrane solution from step 2 with a pipette, and each well was added with 89 μL of the membrane solution. • 4. […] The configured test plate was placed at 30° C. and incubated for 60 minutes. • 6. The membrane complexes were collected into 0.5% PEI pre-coated GF/B plate with Cell Harvester, washed 3 times with 2 mL of pre-cooled elution buffer at 4° C., and dried at 37° C. for 2 hours. • 7.
Y=Bottom+(Top−Bottom)/(1+10^((X−Log IC50))), wherein: Y is the reading value of the liquid scintillation counter, and X is the logarithmic value of the compound concentration.

Data set [2] can be described thus: In vivo pharmacokinetics in mice, oral administration. The note with it: male CD1 mice, oral 10 mg/kg. On the procedure:
In this experimental example, in vivo pharmacokinetic evaluations were performed on mice by intravenous injection and oral administration.
Experimental methods and conditions: Male CD1 mice, 6 to 8 weeks old with free access to food and water, were administered by oral gavage with a dosage of 10 mg/kg (solvent 5% DMSO/10% Solutol/85% Saline). 15 minutes, 30 minutes, 1 hour, 2 hours, 4 hours, 8 hours, 10 hours, 24 hours after administration, blood samples were collected. Each sample was collected in a volume of 150 μL and anticoagulated with heparin sodium, placed on ice after collection, and centrifuged within 1 hour to separate the test plasma. The plasma concentration in plasma was tested by liquid chromatography-tandem mass spectrometry (LC/MS/MS), and pharmacokinetic parameters were calculated using Phoenix WinNonlin software via the measured concentration.

The mark [3] stands for this setting: LLC-PK1, AVP 10 nM, verapamil 5 μM, graded against Tolvaptan.

Like-named read-outs stand apart in the source and are kept apart here.

T1 sequence (P30518 whole entry): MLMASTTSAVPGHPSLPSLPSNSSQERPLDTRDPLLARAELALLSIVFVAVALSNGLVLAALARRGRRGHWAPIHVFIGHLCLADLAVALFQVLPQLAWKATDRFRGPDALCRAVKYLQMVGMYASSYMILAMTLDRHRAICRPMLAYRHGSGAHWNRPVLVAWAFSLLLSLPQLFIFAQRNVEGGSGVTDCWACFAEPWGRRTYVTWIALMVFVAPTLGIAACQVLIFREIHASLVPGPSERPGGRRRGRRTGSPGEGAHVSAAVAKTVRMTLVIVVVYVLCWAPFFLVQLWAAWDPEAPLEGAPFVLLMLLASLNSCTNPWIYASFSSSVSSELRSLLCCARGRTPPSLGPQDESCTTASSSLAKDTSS

For `Cc1ccccc1C(=O)Nc1ccc(C(=O)N2CCC3CCOC3c3cc(Cl)ccc32)c(C)c1` (single isomer, unassigned) [Compound 4], in data set [1], the half-maximal inhibitory concentration (IC50) was 7.45 nM.
Turning to `Cc1ccccc1C(=O)Nc1ccc(C(=O)N2CCC3CCOC3c3cc(Cl)ccc32)c(C)c1` (single isomer, unassigned) [Compound 5], the concentration for half-maximal inhibition (IC50) in data set [1] was 61.6 nM.
As to `Cc1ccccc1C(=O)Nc1ccc(C(=O)N2CCC3CCNC3c3cc(Cl)ccc32)c(C)c1` (stereo not drawn) [Compound 1], in the data set with LLC-PK1 cells (AVP-induced LLC-PK1 cell proliferation), the “dose-response compared with Tolvaptan” value is “superior to that of Tolvaptan”. Also, in the data set on LLC-PK1 cells, the “hook effect in AVP-induced LLC-PK1 cell proliferation” value is given as “no hook effect”. In addition, in data set [1], the IC50 turned out to be 14.7 nM.
Turning to `O=C(Nc1ccc(C(=O)N2CCC3CCNC3c3cc(Cl)ccc32)cn1)c1ccccc1C(F)(F)F` (stereo not drawn) [Compound 2], the IC50 in data set [1] was found to be 32.6 nM.
On to `CN1CCC2CCN(C(=O)c3ccc(NC(=O)c4ccccc4C(F)(F)F)nc3)c3ccc(Cl)cc3[C@H]21` (stereo partly drawn) [Compound 3A], for which, in data set [1], the IC50 is 84.7 nM.
Same read-out and setting: with `Cc1ccccc1C(=O)Nc1ccc(C(=O)N2CCC3COC3c3cc(Cl)ccc32)c(C)c1` (stereo not drawn) [Compound 6] the figure was 3.85 nM; with `Cc1cc(NC(=O)c2ccccc2Cl)ccc1C(=O)N1CCC2CNC2c2cc(Cl)ccc21` (stereo not drawn) [Compound 7], 92.7 nM.
`O=C(Nc1ccc(C(=O)N2CCC3CCNC3c3cc(Cl)ccc32)cn1)c1ccccc1C(F)(F)F` (stereo not drawn) [Compound 8]: the IC50 in data set [1] came to 69.5 nM.
In turn, `Cc1ccccc1C(=O)Nc1ccc(C(=O)N2CCCC(O)c3cc(Cl)ccc32)c(C)c1` (stereo not drawn) [Reference substance 1, Tolvaptan, reference compound] registered an IC50 on human V1bR greater than 10 µM. Further, the Ki on human V1bR (read-out: Binding affinity V1bR, N = 1, isotope-labeled vasopressin […], experiment 1, bound printed in μM) was greater than 10 µM. In addition, at human V1bR (read-out: Binding affinity V1bR, N = 2, isotope-labeled vasopressin […], experiment 2, bound printed in μM), the Ki was greater than 10 µM. The Ki on human V1bR (read-out: Binding affinity V1bR, summary of the two experiments) is greater than 10 µM. Moreover, the F in data set [2] is recorded as 44%. In data set [2] (mouse, plasma), this compound had an AUC(0-inf) of 1610 ng·h/mL, a Cmax of 1310 ng/mL and a half-life of 94.8 min. In addition, in the data set on LLC-PK1 cells (setting [3]), the “Proliferation inhibition grading, Repeated experiment I” value was “++” and the “Proliferation inhibition grading, Repeated experiment II” value is “++”. In addition, the “hook effect in AVP-induced LLC-PK1 cell proliferation” value with LLC-PK1 cells was “high-concentration pro-proliferative hook effect”.

For orientation: IC50 means the concentration that inhibits the measured activity by half. As a reminder, the AUC(0-inf) is total exposure, with the tail of the curve extrapolated. The Cmax is the maximum level reached in the sampled fluid or tissue. By half-life is commonly meant how long it takes for the measured level to halve.

Source of the values: patent US12600729B2, “New-type benzazepine fused ring derivative” (SHANGHAI JEYOU PHARMACEUTICAL CO., LTD., priority 2021, dated 2026).
